# How the values were obtained:
# full-length human BTK = full-length human BTK (Homo sapiens (Human), UniProt Q06187); assay: BTK IC50 Enzyme Assay (microfluidic off-chip mobility shift kinase assay); type: biochemical; conditions: Btk Enzymatic IC50 Assay, 90 min at 27 C;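 further: Read-out separates phosphorylated peptide product from substrate by their charge-to-mass difference, with IC50 fitted from log inhibitor concentration against percent enzyme activity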
# Btk [1] = target: T1, Btk (Homo sapiens (Human), UniProt Q06187); assay: Time Dependent Human Whole Blood IC50 Assay; type: cell-based; conditions: read-out: Assay C (IC50)
# Btk [2] = target: T1, Btk; assay: Btk PBMC IC50 Cell Assay (anti-IgM-induced CD69 expression on B cells); type: cell-based; conditions: anti-IgM-induced CD69 expression on CD19 positive cells in human PBMCs;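 further: freshly isolated human PBMCs, IC50 from concentration-response of the share of CD19+ cells expressing CD69 after anti-IgM BCR stimulation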
# T1 sequence (Q06187 whole entry): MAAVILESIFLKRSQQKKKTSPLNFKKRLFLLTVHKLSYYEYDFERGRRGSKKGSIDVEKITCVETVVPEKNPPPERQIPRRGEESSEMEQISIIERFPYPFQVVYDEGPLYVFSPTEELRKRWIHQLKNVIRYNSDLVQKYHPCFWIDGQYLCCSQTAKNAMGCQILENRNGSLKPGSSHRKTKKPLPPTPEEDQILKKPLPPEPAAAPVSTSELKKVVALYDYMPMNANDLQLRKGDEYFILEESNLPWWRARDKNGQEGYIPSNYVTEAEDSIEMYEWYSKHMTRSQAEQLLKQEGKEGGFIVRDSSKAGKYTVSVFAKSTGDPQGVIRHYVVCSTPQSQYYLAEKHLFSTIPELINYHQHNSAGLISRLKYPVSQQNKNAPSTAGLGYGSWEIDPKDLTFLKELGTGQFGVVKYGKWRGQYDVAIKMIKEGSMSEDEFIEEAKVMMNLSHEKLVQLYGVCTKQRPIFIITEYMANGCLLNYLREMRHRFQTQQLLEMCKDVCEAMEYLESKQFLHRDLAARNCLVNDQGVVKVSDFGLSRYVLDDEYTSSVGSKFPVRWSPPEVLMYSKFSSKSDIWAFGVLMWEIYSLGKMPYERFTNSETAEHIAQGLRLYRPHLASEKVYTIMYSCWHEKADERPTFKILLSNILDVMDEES
# Chain of full-length human BTK (Q06187 whole entry): as above
Compound,IC50 (full-length human BTK) [µM],IC50 (Btk [1]) [µM],IC50 (Btk [2]) [µM]
"Cc1cc(-c2nc3c(-c4ccc5c(c4)CCCCC5NC(=O)c4nnc(C(C)(C)C)o4)ccnc3[nH]2)nn1C (stereo not drawn) [Compound 3, 5-tert-butyl-N-[2-[2-(1,5-dimethyl-1H-pyrazol-3-yl)-3H-imidazo[4,5-b]pyridin-7-yl]-6,7,8,9-tetrahydro-5H-benzo[7]annulen-5-yl]-1,3,4-oxadiazole-2-carboxamide]",< 0.001,0.001 to 0.01,0.001 to 0.01
"CCc1cc(-c2nc3c(-c4ccc5c(c4)CCCCC5NC(=O)c4nc(C(C)(C)C)no4)ccnc3[nH]2)nn1C (stereo not drawn) [Compound 133, 3-tert-Butyl-[1,2,4]oxadiazole-5-carboxylic acid {2-[2-(5-ethyl-1-methyl-1H-pyrazol-3-yl)-3H-imidazo[4,5-b]pyridin-7-yl]-6,7,8,9-tetrahydro-5H-benzocyclohepten-5-yl}-amide]",< 0.001,0.001 to 0.01,0.001 to 0.01
"Cc1c(-c2nc3c(-c4ccc5c(c4)CCCCC5NC(=O)c4nc(C(C)(C)C)no4)ccnc3[nH]2)cnn1C(C)C (stereo not drawn) [Compound 136, 3-tert-Butyl-[1,2,4]oxadiazole-5-carboxylic acid {2-[2-(1-isopropyl-5-methyl-1H-pyrazol-4-yl)-3H-imidazo[4,5-b]pyridin-7-yl]-6,7,8,9-tetrahydro-5H-benzocyclohepten-5-yl}-amide]",< 0.001,0.01 to 0.1,0.001 to 0.01
"Cc1nn(C)c(C)c1-c1nc2c(-c3ccc4c(c3)CCCCC4NC(=O)c3noc(C4(C)CC4)n3)ccnc2[nH]1 (stereo not drawn) [Compound 11, 5-(1-Methyl-cyclopropyl)-[1,2,4]oxadiazole-3-carboxylic acid {2-[2-(1,3,5-trimethyl-1H-pyrazol-4-yl)-3H-imidazo[4,5-b]pyridin-7-yl]-6,7,8,9-tetrahydro-5H-benzocyclohepten-5-yl}-amide]",< 0.001,0.01 to 0.1,0.001 to 0.01
"Cc1cc(-c2nc3c(-c4ccc5c(c4)CCCC[C@H]5NC(=O)c4nnc(C(C)(C)C)o4)ccnc3[nH]2)nn1C [Compound 153, 5-tert-Butyl-[1,3,4]oxadiazole-2-carboxylic acid {(R)-2-[2-(1,5-dimethyl-1H-pyrazol-3-yl)-3H-imidazo[4,5-b]pyridin-7-yl]-6,7,8,9-tetrahydro-5H-benzocyclohepten-5-yl}-amide]",< 0.001,0.001 to 0.01,0.001 to 0.01
"CCc1cc(-c2nc3c(-c4ccc5c(c4)CCCCC5NC(=O)c4nnc(C(C)(C)C)o4)ccnc3[nH]2)nn1C (stereo not drawn) [Compound 131, 5-tert-Butyl-[1,3,4]oxadiazole-2-carboxylic acid {2-[2-(5-ethyl-1-methyl-1H-pyrazol-3-yl)-3H-imidazo[4,5-b]pyridin-7-yl]-6,7,8,9-tetrahydro-5H-benzocyclohepten-5-yl}-amide]",< 0.001,0.01 to 0.1,0.001 to 0.01
"Cc1c(-c2nc3c(-c4ccc5c(c4)CCCC[C@H]5NC(=O)c4noc(C5(C)CC5)n4)ccnc3[nH]2)cnn1C(C)C [Compound 24, 5-(1-Methyl-cyclopropyl)-[1,2,4]oxadiazole-3-carboxylic acid {(R)-2-[2-(1-isopropyl-5-methyl-1H-pyrazol-4-yl)-3H-imidazo[4,5-b]pyridin-7-yl]-6,7,8,9-tetrahydro-5H-benzocyclohepten-5-yl}-amide]",< 0.001,0.001 to 0.01,0.001 to 0.01
"Cc1c(-c2nc3c(-c4ccc5c(c4)CCC[C@H]5NC(=O)c4noc(C(C)(C)C)n4)ccnc3[nH]2)cnn1C(C)C [Compound 164, 5-tert-Butyl-[1,2,4]oxadiazole-3-carboxylic acid {(R)-6-[2-(1-isopropyl-5-methyl-1H-pyrazol-4-yl)-3H-imidazo[4,5-b]pyridin-7-yl]-1,2,3,4-tetrahydro-naphthalen-1-yl}-amide]",0.001 to 0.01,> 0.1,0.001 to 0.01
"CCn1nc(C)c(-c2nc3c(-c4ccc5c(c4)CCCCC5NC(=O)c4nc(C5(C)CC5)no4)ccnc3[nH]2)c1C (stereo not drawn) [Compound 135, 3-(1-Methyl-cyclopropyl)-[1,2,4]oxadiazole-5-carboxylic acid {2-[2-(1-ethyl-3,5-dimethyl-1H-pyrazol-4-yl)-3H-imidazo[4,5-b]pyridin-7-yl]-6,7,8,9-tetrahydro-5H-benzocyclohepten-5-yl}-amide]",< 0.001,0.001 to 0.01,0.001 to 0.01
"Cc1nn(C)c(C)c1-c1nc2c(-c3ccc4c(c3)CCCCC4NC(=O)c3nc(C4(C)CC4)no3)ccnc2[nH]1 (stereo not drawn) [Compound 143, 3-(1-Methyl-cyclopropyl)-[1,2,4]oxadiazole-5-carboxylic acid {2-[2-(1,3,5-trimethyl-1H-pyrazol-4-yl)-3H-imidazo[4,5-b]pyridin-7-yl]-6,7,8,9-tetrahydro-5H-benzocyclohepten-5-yl}-amide]",< 0.001,0.01 to 0.1,0.001 to 0.01
Cc1nn(C)c(C)c1-c1nc2c(-c3ccc4c(c3)CCCCC4NC(=O)c3cc(C(C)(C)C)on3)ccnc2[nH]1 (stereo not drawn) [Compound 70],0.001 to 0.01,0.01 to 0.1,0.001 to 0.01
"Cc1nn(C(C)C)c(C)c1-c1nc2c(-c3ccc4c(c3)CCCC[C@H]4NC(=O)c3noc(C4(C)CC4)n3)ccnc2[nH]1 [Compound 33, 5-(1-Methyl-cyclopropyl)-[1,2,4]oxadiazole-3-carboxylic acid {(R)-2-[2-(1-isopropyl-3,5-dimethyl-1H-pyrazol-4-yl)-3H-imidazo[4,5-b]pyridin-7-yl]-6,7,8,9-tetrahydro-5H-benzocyclohepten-5-yl}-amide]",< 0.001,0.001 to 0.01,0.001 to 0.01
"Cc1c(-c2nc3c(-c4ccc5c(c4)CCCCC5NC(=O)c4nc(C5(C)CC5)no4)ccnc3[nH]2)cnn1C(C)C (stereo not drawn) [Compound 26, 3-(1-Methyl-cyclopropyl)-[1,2,4]oxadiazole-5-carboxylic acid {2-[2-(1-isopropyl-5-methyl-1H-pyrazol-4-yl)-3H-imidazo[4,5-b]pyridin-7-yl]-6,7,8,9-tetrahydro-5H-benzocyclohepten-5-yl}-amide]",0.001 to 0.01,0.01 to 0.1,0.001 to 0.01
"Cc1nn(C)c(C)c1-c1nc2c(-c3ccc4c(c3)CCCCC4NC(=O)c3nnc(C(C)(C)C)o3)ccnc2[nH]1 (stereo not drawn) [Compound 116, 5-tert-Butyl-[1,3,4]oxadiazole-2-carboxylic acid {2-[2-(1,3,5-trimethyl-1H-pyrazol-4-yl)-3H-imidazo[4,5-b]pyridin-7-yl]-6,7,8,9-tetrahydro-5H-benzocyclohepten-5-yl}-amide]",0.001 to 0.01,0.01 to 0.1,0.001 to 0.01
"Cc1nn(C)c(C)c1-c1nc2c(-c3ccc4c(c3)CCCC[C@H]4NC(=O)c3nc(C4(C)CC4)no3)ccnc2[nH]1 [Compound 123, 3-(1-Methyl-cyclopropyl)-[1,2,4]oxadiazole-5-carboxylic acid {(R)-2-[2-(1,3,5-trimethyl-1H-pyrazol-4-yl)-3H-imidazo[4,5-b]pyridin-7-yl]-6,7,8,9-tetrahydro-5H-benzocyclohepten-5-yl}-amide]",< 0.001,0.001 to 0.01,0.001 to 0.01
"Cc1c(-c2nc3c(-c4ccc5c(c4)CCCCC5NC(=O)c4nnc(C(C)(C)C)o4)ccnc3[nH]2)cnn1C1CCOCC1 (stereo not drawn) [Compound 120, 5-tert-Butyl-[1,3,4]oxadiazole-2-carboxylic acid (2-{2-[5-methyl-1-(tetrahydro-pyran-4-yl)-1H-pyrazol-4-yl]-3H-imidazo[4,5-b]pyridin-7-yl}-6,7,8,9-tetrahydro-5H-benzocyclohepten-5-yl)-amide]",< 0.001,0.001 to 0.01,0.001 to 0.01
"Cc1cc(-c2nc3c(-c4ccc5c(c4)CCCC5NC(=O)c4nc(C(C)(C)C)no4)ccnc3[nH]2)nn1C (stereo not drawn) [Compound 107, 3-tert-Butyl-[1,2,4]oxadiazole-5-carboxylic acid {6-[2-(1,5-dimethyl-1H-pyrazol-3-yl)-3H-imidazo[4,5-b]pyridin-7-yl]-1,2,3,4-tetrahydro-naphthalen-1-yl}-amide]",< 0.001,0.01 to 0.1,0.01 to 0.1
"CC(C)(C)c1noc(C(=O)NC2CCCCc3cc(-c4ccnc5[nH]c(-c6cnn(C7CC7)c6)nc45)ccc32)n1 (stereo not drawn) [Compound 83, 3-tert-butyl-N-{2-[2-(1-cyclopropyl-1H-pyrazol-4-yl)-3H-imidazo[4,5-b]pyridin-7-yl]-6,7,8,9-tetrahydro-5H-benzo[7]annulen-5-yl}-1,2,4-oxadiazole-5-carboxamide]",< 0.001,0.001 to 0.01,0.001 to 0.01
"Cc1nn(C(C)C)cc1-c1nc2nccc(-c3ccc4c(c3)CCCC[C@H]4NC(=O)c3nnc(C(C)(C)C)o3)c2[nH]1 [Compound 78, 5-tert-butyl-N-[(5R)-2-{2-[3-methyl-1-(propan-2-yl)-1H-pyrazol-4-yl]-1H-imidazo[4,5-b]pyridin-7-yl}-6,7,8,9-tetrahydro-5H-benzo[7]annulen-5-yl]-1,3,4-oxadiazole-2-carboxamide]",< 0.001,0.001 to 0.01,0.001 to 0.01
"Cc1nn(C)c(C)c1-c1nc2c(-c3ccc4c(c3)CCCC[C@H]4NC(=O)c3nc(C(C)(C)C)no3)ccnc2[nH]1 [Compound 142, 3-tert-Butyl-[1,2,4]oxadiazole-5-carboxylic acid {(R)-2-[2-(1,3,5-trimethyl-1H-pyrazol-4-yl)-3H-imidazo[4,5-b]pyridin-7-yl]-6,7,8,9-tetrahydro-5H-benzocyclohepten-5-yl}-amide]",< 0.001,0.001 to 0.01,0.001 to 0.01
"Cc1nn(C)c(C)c1-c1nc2c(-c3ccc4c(c3)CCCC[C@H]4NC(=O)c3nnc(C(C)(C)C)o3)ccnc2[nH]1 [Compound 121, 5-tert-Butyl-[1,3,4]oxadiazole-2-carboxylic acid {(R)-2-[2-(1,3,5-trimethyl-1H-pyrazol-4-yl)-3H-imidazo[4,5-b]pyridin-7-yl]-6,7,8,9-tetrahydro-5H-benzocyclohepten-5-yl}-amide]",< 0.001,0.01 to 0.1,0.001 to 0.01

# Reference: patent US12415803B2, “Fused imidazopyridines as reversible inhibitors of Brutons Tyrosine Kinase (BTK)” (Merck Patent GmbH, priority 2018, dated 2025)
